Results published in patent publication US4558134A, “Certain phenoxy-pyridine-carbonitriles having antiviral activity” (The Dow Chemical Company, priority 1983, dated 1985).
In brackets after ≈: the same amount, converted by molar mass. Where two headings read alike, the source gives them in different places.

Assays:
in vitro = details: human, hela cells
[1] = test system: rhinovirus type 1A (RV-1A); assay: Tissue culture testing, reduction of viral cytopathic effect, RV-1A; assay type: cell-based; details: Enterovirus, read-out: Lowest concentration of the compound necessary to cause a 50 percent reduction in cytopathic effect, RV-1A
[2] = test system: Coxsackie A21 virus (Cox A21); assay: Tissue culture testing, reduction of viral cytopathic effect, Cox A21; assay type: cell-based; details: HeLa cells, 48 and 72 hours, read-out: Lowest concentration of the compound necessary to cause a 50 percent reduction in cytopathic effect, CoxA21
rhinovirus type 2 (RV-2) = assay: Tissue culture testing, reduction of viral cytopathic effect, RV-2; assay type: cell-based; details: Enterovirus, read-out: Lowest concentration of the compound necessary to cause a 50 percent reduction in cytopathic effect, RV-2
[3] = test system: rhinovirus type 39 (RV-39); assay: Tissue culture testing, reduction of viral cytopathic effect, RV-39; assay type: cell-based; details: Enterovirus, read-out: Lowest concentration of the compound necessary to cause a 50 percent reduction in cytopathic effect, RV-39
[4] = test system: polio virus type 2 (Polio-2); assay: organism not typed; assay type: cell-based; details: HeLa, read-out: Lowest concentration of the compound necessary to cause a 50 percent reduction in cytopathic effect, Polio-2
[5] = test system: rhinovirus type 64 (RV-64); assay: Tissue culture testing, reduction of viral cytopathic effect, RV-64; assay type: cell-based; details: Enterovirus, read-out: Lowest concentration of the compound necessary to cause a 50 percent reduction in cytopathic effect, RV-64
Coxsackie A21 virus = assay: Continuous Oral Feeding test in mice challenged IP with Coxsackie A21 virus; details: 0.06% by weight in diet; 10 days; >3.84 active (95% confidence level)
[6] = HeLa cells, RV-1A, 48 and 72 hours
[7] = HeLa cells, RV-2, 48 and 72 hours
[8] = HeLa cells, RV-39, 48 and 72 hours
[9] = HeLa cells, RV-64, 48 and 72 hours

| SMILES | MCC (in vitro) | EC50 [1, 6] | EC50 [2] | EC50 (rhinovirus type 2 (RV-2); [7]) | EC50 [3, 8] | EC50 [4] | EC50 [5, 9] | Continuous Oral Feeding X^2 (chi-square, mortality) (Coxsackie A21 virus) | EC50 ([3]; HeLa) | EC50 ([5]; HeLa) | EC50 (rhinovirus type 2 (RV-2); HeLa) | EC50 ([1]; HeLa) |
| --- | --- | --- | --- | --- | --- | --- | --- | --- | --- | --- | --- | --- |
| C[S+]([O-])c1ccc(Oc2ccc(Cl)c(Cl)c2)nc1C#N (stereo not drawn) [Example 29, 6-(3,4-Dichlorophenoxy)-3-methylsulfinyl-2-pyridinecarbonitrile] | > 50 µg/mL | 12.5 mg/L (≈ 38.2 µM) | 12.5 mg/L (≈ 38.2 µM) | 12.5 mg/L (≈ 38.2 µM) |  |  |  |  |  |  |  |  |
| CCSc1ccc(Oc2ccc(Cl)c(Cl)c2)nc1C#N [Example 20, 6-(3,4-Dichlorophenoxy)-3-ethylthio-2-pyridinecarbonitrile] | > 12.5 µg/mL | 3.13 mg/L (≈ 9.62 µM) | 0.03 mg/L (≈ 0.0922 µM) | 3.13 mg/L (≈ 9.62 µM) | 6.25 mg/L (≈ 19.2 µM) | < 0.78 mg/L | 12.5 mg/L (≈ 38.4 µM) | 6.5 |  |  |  |  |
| CSc1cc(C#N)c(Oc2ccc(Cl)c(Cl)c2)cn1 [Example 24, 5-(3,4-Dichlorophenoxy)-2-methylthio-4-pyridinecarbonitrile] | > 50 µg/mL | > 50 mg/L | 1.25 mg/L (≈ 4.02 µM) | > 50 mg/L |  |  | > 50 mg/L |  |  |  |  |  |
| CCSc1ccc(Oc2ccc(C(=O)c3ccccc3)cc2)nc1C#N [Example 26, 6-(4-Benzoylphenoxy)-3-ethylthio-2-pyridinecarbonitrile] | 50 µg/mL | 25 mg/L (≈ 69.4 µM) | < 3.1 mg/L | < 3.1 mg/L |  |  |  | 27.5 |  |  |  |  |
| CCCSc1ccc(Oc2ccc(Cl)c(Cl)c2)c(C#N)n1 [Example 35, 3-(3,4-Dichlorophenoxy)-6-propylthio-2-pyridinecarbonitrile] | 50 µg/mL | 0.78 mg/L (≈ 2.3 µM) | < 3.13 mg/L |  |  | 12.5 mg/L (≈ 36.8 µM) |  |  | 12.5 mg/L (≈ 36.8 µM) | > 12.5 mg/L | 12.5 mg/L (≈ 36.8 µM) |  |
| CC(C)CSc1ccc(Oc2ccc(Cl)c(Cl)c2)nc1C#N [Example 42, 6-(3,4-Dichlorophenoxy)-3-(isobutylthio)-2-pyridinecarbonitrile] | > 25 µg/mL | 12.5 mg/L (≈ 35.4 µM) | < 1.56 mg/L | 6.25 mg/L (≈ 17.7 µM) |  |  | 6.25 mg/L (≈ 17.7 µM) |  |  |  |  |  |
| CC(C)Sc1ccc(Oc2ccc(Cl)c(Cl)c2)c(C#N)n1 [Example 37, 3-(3,4-Dichlorophenoxy)-6-isopropylthio-2-pyridinecarbonitrile] | ≥ 25 µg/mL | 3.13 mg/L (≈ 9.23 µM) | < 1.56 mg/L | < 1.56 mg/L |  |  | ≤ 1.56 mg/L |  |  |  |  |  |
| CSc1ccc(Oc2ccc(Cl)c(Cl)c2)nc1C#N [Example 25, 6-(3,4-Dichlorophenoxy)-3-methylthio-2-pyridinecarbonitrile] | > 50 µg/mL | 25 mg/L (≈ 80.3 µM) | < 3.1 mg/L |  |  |  |  |  |  |  |  |  |
| CCSc1ccc(Oc2ccc(Cl)c(Cl)c2)c(C#N)n1 [Example 21, 3-(3,4-Dichlorophenoxy)-6-ethylthio-2-pyridinecarbonitrile] | 2.5 µg/mL | 2.5 mg/L (≈ 7.69 µM) | 0.6 mg/L (≈ 1.84 µM) | 0.6 mg/L (≈ 1.84 µM) |  |  | 2.5 mg/L (≈ 7.69 µM) |  |  |  |  |  |
| CCSc1cc(C#N)c(Oc2ccc(Cl)c(Cl)c2)cn1 [Example 23, 5-(3,4-Dichlorophenoxy)-2-ethylthio-4-pyridinecarbonitrile] | 50 µg/mL | > 50 mg/L | 2.5 mg/L (≈ 7.69 µM) | 2.5 mg/L (≈ 7.69 µM) |  |  |  |  |  |  |  |  |
| C[S+]([O-])c1ccc(Oc2ccc(Cl)c(Cl)c2)nc1C(N)=O (stereo not drawn) [Example 30, 6-(3,4-Dichlorophenoxy)-3-methylsulfinyl-2-pyridinecarboxamide] | 25 µg/mL | 6.3 mg/L (≈ 18.2 µM) | < 3.1 mg/L | 6.3 mg/L (≈ 18.2 µM) |  |  |  |  |  |  |  |  |
| CCCSc1ccc(Oc2ccc(Cl)c(Cl)c2)nc1C#N [Example 34, 6-(3,4-Dichlorophenoxy)-3-propylthio-2-pyridinecarbonitrile] | > 50 µg/mL |  | 0.08 mg/L (≈ 0.236 µM) | 3.13 mg/L (≈ 9.23 µM) | 25 mg/L (≈ 73.7 µM) | 1.56 mg/L (≈ 4.6 µM) | > 12.5 mg/L |  |  |  |  | 1.56 mg/L (≈ 4.6 µM) |
| CS(=O)(=O)c1ccc(Oc2ccc(Cl)c(Cl)c2)nc1C#N [Example 32, 6-(3,4-Dichlorophenoxy)-3-methylsulfonyl-2-pyridinecarbonitrile] | > 12.5 µg/mL | 6.25 mg/L (≈ 18.2 µM) | > 50 mg/L | 6.25 mg/L (≈ 18.2 µM) |  | > 12.5 mg/L | 3.13 mg/L (≈ 9.12 µM) | 10.1 | > 12.5 mg/L |  |  |  |
| CC(C)CSc1ccc(Oc2ccc(Cl)c(Cl)c2)c(C#N)n1 [Example 43, 3-(3,4-Dichlorophenoxy)-6-(isobutylthio)-2-pyridinecarbonitrile] | ≥ 25 µg/mL | 12.5 mg/L (≈ 35.4 µM) | 1.56 mg/L (≈ 4.42 µM) | ≤ 1.56 mg/L |  |  | 3.13 mg/L (≈ 8.86 µM) |  |  |  |  |  |
| CCSc1cnc(Oc2ccc(Cl)c(Cl)c2)cc1C#N [Example 22, 2-(3,4-Dichlorophenoxy)-5-ethylthio-4-pyridinecarbonitrile] | 50 µg/mL | > 50 mg/L | 0.63 mg/L (≈ 1.94 µM) | 2.5 mg/L (≈ 7.69 µM) |  |  |  |  |  |  |  |  |
| CCSc1ncc(Oc2ccc(Cl)c(Cl)c2)cc1C#N [Example 27, 5-(3,4-Dichlorophenoxy)-2-ethylthio-3-pyridinecarbonitrile] | > 50 µg/mL |  | < 3.13 mg/L |  |  |  |  |  |  |  |  |  |
| CC(C)Sc1ccc(Oc2ccc(Cl)c(Cl)c2)nc1C#N [Example 36, 6-(3,4-Dichlorophenoxy)-3-isopropylthio-2-pyridinecarbonitrile] | 12.5 µg/mL | ≤ 1.56 mg/L | < 1.56 mg/L | ≤ 1.56 mg/L | 1.56 mg/L (≈ 4.6 µM) |  | 3.13 mg/L (≈ 9.23 µM) |  |  |  |  |  |
| CCSc1cnc(Oc2ccc(Cl)c(Cl)c2)c(C#N)c1 [Example 28, 2-(3,4-Dichlorophenoxy)-5-ethylthio-3-pyridinecarbonitrile] | > 50 µg/mL | > 50 mg/L | 1.25 mg/L (≈ 3.84 µM) | > 50 mg/L |  |  | > 50 mg/L |  |  |  |  |  |
| CCC(C)Sc1ccc(Oc2ccc(Cl)c(Cl)c2)nc1C#N (stereo not drawn) [Example 40, 6-(3,4-Dichlorophenoxy)-3-(sec-butylthio)-2-pyridinecarbonitrile] | > 25 µg/mL | 1.56 mg/L (≈ 4.42 µM) | 0.16 mg/L (≈ 0.453 µM) | 1.25 mg/L (≈ 3.54 µM) | 10 mg/L (≈ 28.3 µM) |  | 1.56 mg/L (≈ 4.42 µM) |  |  |  |  |  |
| CCCCSc1ccc(Oc2ccc(Cl)c(Cl)c2)c(C#N)n1 [Example 39, 3-(3,4-Dichlorophenoxy)-6-(n-butylthio)-2-pyridinecarbonitrile] | ≥ 25 µg/mL | > 25 mg/L | 1.56 mg/L (≈ 4.42 µM) | 3.13 mg/L (≈ 8.86 µM) |  |  | 12.5 mg/L (≈ 35.4 µM) |  |  |  |  |  |
| CCCCSc1ccc(Oc2ccc(Cl)c(Cl)c2)nc1C#N [Example 38, 6-(3,4-Dichlorophenoxy)-3-(n-butylthio)-2-pyridinecarbonitrile] | > 25 µg/mL | 12.5 mg/L (≈ 35.4 µM) | < 1.56 mg/L | 6.25 mg/L (≈ 17.7 µM) |  |  | 12.5 mg/L (≈ 35.4 µM) |  |  |  |  |  |
| CCS(=O)(=O)c1ccc(Oc2ccc(Cl)c(Cl)c2)nc1C#N [Example 33, 6-(3,4-Dichlorophenoxy)-3-ethylsulfonyl-2-pyridinecarbonitrile] | 50 µg/mL |  | < 3.1 mg/L | < 3.1 mg/L |  |  |  |  |  |  |  |  |
| CC[S+]([O-])c1ccc(Oc2ccc(Cl)c(Cl)c2)nc1C#N (stereo not drawn) [Example 31, 6-(3,4-Dichlorophenoxy)-3-ethylsulfinyl-2-pyridinecarbonitrile] | 50 µg/mL | 12.5 mg/L (≈ 36.6 µM) | < 3.1 mg/L | 12.5 mg/L (≈ 36.6 µM) |  |  |  |  |  |  |  |  |
| CCC(C)Sc1ccc(Oc2ccc(Cl)c(Cl)c2)c(C#N)n1 (stereo not drawn) [Example 41, 3-(3,4-Dichlorophenoxy)-6-(sec-butylthio)-2-pyridinecarbonitrile] | > 25 µg/mL | 6.25 mg/L (≈ 17.7 µM) | ≤ 1.56 mg/L | < 1.56 mg/L |  |  | < 1.56 mg/L |  |  |  |  |  |
